Measurements as given in US11753407B2, “Compounds for treating spinal muscular atrophy” (PTC Therapeutics, Inc., priority 2012, dated 2023).

What was measured:
[1] = system: SMN2 minigene mRNA (SMN2-A minigene) in HEK293H cells; experiment: SMN2 minigene mRNA splicing RT-qPCR assay in cultured cells; type: cell-based, human; settings: Homo sapiens, HEK293-H; concentration increasing full length SMN2 mRNA 1.5-fold relative to vehicle-treated cells; HEK293H cells with SMN2-A minigene, 24 hours, 7-point concentration data; read-out: EC1.5x for production of full length SMN2 mRNA
Procedure, shortened: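 HEK293H cells stably carrying the SMN2-A minigene were treated for 24 h at 37 °C with a 7-point, 3.16-fold dilution series of compound. Multiplex RT-qPCR measured exon 7-containing minigene FL mRNA against GAPDH, expressed relative to vehicle by modified ΔΔCt; the EC1.5× is the concentration giving a 1.5-fold increase.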

[2] = system: Smn protein in SMA patient fibroblast cells (GM03813); experiment: Smn protein assay in cultured cells (SMN HTRF); type: cell-based, human; settings: SMA patient fibroblast cells, 48 hours; for maximum fold (Fold) increase of Smn protein: 7-point concentration data, fold relative to vehicle control; for EC1.5x for Smn protein expression: 7-point concentration curve, SMN HTRF, concentration producing 1.5 times Smn protein vs DMSO vehicle control
Procedure, shortened: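 SMA patient fibroblasts (5,000 cells/well, DMEM-10% FBS) were treated for 48 h at 37 °C with a 7-point, 3.16-fold dilution series in triplicate. RIPA lysates were probed by HTRF (anti-SMN d2/kryptate, overnight, room temperature), reading 665/620 nm. EC1.5× is the concentration giving 1.5-fold Smn over DMSO vehicle.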

| Compound | EC (1.5-fold increase) [1] | maximum fold (Fold) increase of Smn protein [2] | melting point | EC1.5x for Smn protein expression [2] |
| --- | --- | --- | --- | --- |
| COc1ccc(-c2cc(=O)n3cc(C4=CCN(C5COC5)CC4)ccc3n2)cc1OC [Compound 364, 2-(3,4-dimethoxyphenyl)-7-[1-(oxetan-3-yl)-1,2,3,6-tetrahydropyridin-4-yl]-4H-pyrido[1,2-a]pyrimidin-4-one] | 1 to 3 µM | * (A maximum fold increase of ≤1.2 is indicated by one star (*)) | 178 to 180 °C |  |
| CCCN1CC=C(c2ccc3nc(-c4ccc(OC)c(OC)c4)cc(=O)n3c2)CC1 [Compound 365, 2-(3,4-dimethoxyphenyl)-7-(1-propyl-1,2,3,6-tetrahydropyridin-4-yl)-4H-pyrido[1,2-a]pyrimidin-4-one] | 0.1 to 0.3 µM | *** (a fold increase between >1.35 and ≤1.5 is indicated by three stars (***)) | 158 to 160 °C |  |
| CNC1CC=C(c2ccc3nc(-c4ccc(OC)c(OC)c4)cc(=O)n3c2)CC1 (centres unmarked) [Compound 366, 2-(3,4-dimethoxyphenyl)-7-[4-(methylamino)cyclohex-1-en-1-yl]-4H-pyrido[1,2-a]pyrimidin-4-one] | < 0.1 µM | **** (a fold increase between >1.5 and ≤1.65 is indicated by four stars (****)) | 232 to 235 °C | **** (an EC1.5x≤0.3 μM is indicated by four stars (****)) |
| COc1ccc(-c2cc(=O)n3cc(C4=CCC(N(C)C)CC4)ccc3n2)cc1OC (centres unmarked) [Compound 367, 2-(3,4-dimethoxyphenyl)-7-[4-(dimethylamino)cyclohex-1-en-1-yl]-4H-pyrido[1,2-a]pyrimidin-4-one] | < 0.1 µM | *** (a fold increase between >1.35 and ≤1.5 is indicated by three stars (***)) | 162 to 164 °C | * (An EC1.5× for Smn protein expression between >3 μM and ≤10 μM is indicated by one star (*)) |
| CCN(C)C1CC=C(c2ccc3nc(-c4ccc(OC)c(OC)c4)cc(=O)n3c2)CC1 (centres unmarked) [Compound 368, 2-(3,4-dimethoxyphenyl)-7-{4-[ethyl(methyl)amino]cyclohex-1-en-1-yl}-4H-pyrido[1,2-a]pyrimidin-4-one] | < 0.1 µM | **** (a fold increase between >1.5 and ≤1.65 is indicated by four stars (****)) | 132 to 134 °C | *** (an EC1.5× between >0.3 μM and ≤1 μM is indicated by three stars (***)) |
| CCCN(C)C1CC=C(c2ccc3nc(-c4ccc(OC)c(OC)c4)cc(=O)n3c2)CC1 (centres unmarked) [Compound 369, 2-(3,4-dimethoxyphenyl)-7-{4-[methyl(propyl)amino]cyclohex-1-en-1-yl}-4H-pyrido[1,2-a]pyrimidin-4-one] | < 0.1 µM | *** (a fold increase between >1.35 and ≤1.5 is indicated by three stars (***)) | 116 to 118 °C | ** (an EC1.5× between >1 μM and ≤3 μM is indicated by two stars (**)) |
| CCN1CC=C(c2ccc3nc(-c4ccc(OC)c(OC)c4)cc(=O)n3c2)CC1 [Compound 370, 2-(3,4-dimethoxyphenyl)-7-(1-ethyl-1,2,3,6-tetrahydropyridin-4-yl)-4H-pyrido[1,2-a]pyrimidin-4-one] | 0.1 to 0.3 µM | ***** (a fold increase >1.65 is indicated by five stars (*****)) | 170 to 172 °C | *** (an EC1.5× between >0.3 μM and ≤1 μM is indicated by three stars (***)) |
| COc1ccc(-c2ccc3nc(C4=CCNCC4)cc(=O)n3c2)cc1OC [Compound 371, 7-(3,4-dimethoxyphenyl)-2-(1,2,3,6-tetrahydropyridin-4-yl)-4H-pyrido[1,2-a]pyrimidin-4-one] | 0.1 to 0.3 µM | **** (a fold increase between >1.5 and ≤1.65 is indicated by four stars (****)) | 172 to 178 °C | *** (an EC1.5× between >0.3 μM and ≤1 μM is indicated by three stars (***)) |
| Cc1cn2cc(-c3cc(=O)n4cc(N5CCN(C(C)C)CC5)ccc4n3)cc(F)c2n1 [Compound 373, 2-(8-fluoro-2-methylimidazo[1,2-a]pyridin-6-yl)-7-[4-(propan-2-yl)piperazin-1-yl]-4H-pyrido[1,2-a]pyrimidin-4-one] | < 0.1 µM | **** (a fold increase between >1.5 and ≤1.65 is indicated by four stars (****)) | 260 to 264 °C | **** (an EC1.5x≤0.3 μM is indicated by four stars (****)) |
| Cc1cn2cc(-c3cc(=O)n4cc(N5CCN(C(C)C)CC5)ccc4n3)cc(Cl)c2n1 [Compound 374, 2-(8-chloro-2-methylimidazo[1,2-a]pyridin-6-yl)-7-[4-(propan-2-yl)piperazin-1-yl]-4H-pyrido[1,2-a]pyrimidin-4-one] | < 0.1 µM | ***** (a fold increase >1.65 is indicated by five stars (*****)) | 287 to 292 °C | **** (an EC1.5x≤0.3 μM is indicated by four stars (****)) |
| Cc1cn2cc(-c3ccc4nc(C5=CCNCC5)cc(=O)n4c3)ccc2n1 [Compound 375, 7-(2-methylimidazo[1,2-a]pyridin-6-yl)-2-(1,2,3,6-tetrahydropyridin-4-yl)-4H-pyrido[1,2-a]pyrimidin-4-one] | < 0.1 µM | **** (a fold increase between >1.5 and ≤1.65 is indicated by four stars (****)) | 197 to 201 °C | **** (an EC1.5x≤0.3 μM is indicated by four stars (****)) |
| Cc1cn2cc(-c3ccc4nc(C5=CCN(C)CC5)cc(=O)n4c3)ccc2n1 [Compound 376, 7-(2-methylimidazo[1,2-a]pyridin-6-yl)-2-(1-methyl-1,2,3,6-tetrahydropyridin-4-yl)-4H-pyrido[1,2-a]pyrimidin-4-one] | < 0.1 µM | *** (a fold increase between >1.35 and ≤1.5 is indicated by three stars (***)) | 203 to 207 °C | *** (an EC1.5× between >0.3 μM and ≤1 μM is indicated by three stars (***)) |
| COc1ccc(-c2ccc3nc(C4=CCN(C)CC4)cc(=O)n3c2)cc1OC [Compound 377, 7-(3,4-dimethoxyphenyl)-2-(1-methyl-1,2,3,6-tetrahydropyridin-4-yl)-4H-pyrido[1,2-a]pyrimidin-4-one] | 0.3 to 1 µM | **** (a fold increase between >1.5 and ≤1.65 is indicated by four stars (****)) | 149 to 152 °C | ** (an EC1.5× between >1 μM and ≤3 μM is indicated by two stars (**)) |
| CCCN1CC=C(c2cc(C)c3nc(-c4ccc(OC)c(OC)c4)cc(=O)n3c2)CC1 [Compound 378, 2-(3,4-dimethoxyphenyl)-9-methyl-7-(1-propyl-1,2,3,6-tetrahydropyridin-4-yl)-4H-pyrido[1,2-a]pyrimidin-4-one] | < 0.1 µM | **** (a fold increase between >1.5 and ≤1.65 is indicated by four stars (****)) | 171 to 177 °C | ** (an EC1.5× between >1 μM and ≤3 μM is indicated by two stars (**)) |
| COc1ccc(-c2cc(=O)n3cc(C4=CCN(C5CCC5)CC4)cc(C)c3n2)cc1OC [Compound 379, 7-(1-cyclobutyl-1,2,3,6-tetrahydropyridin-4-yl)-2-(3,4-dimethoxyphenyl)-9-methyl-4H-pyrido[1,2-a]pyrimidin-4-one] | 0.1 to 0.3 µM | *** (a fold increase between >1.35 and ≤1.5 is indicated by three stars (***)) | 167 to 178 °C |  |
| Cc1nc2ccc(-c3cc(=O)n4cc(N5CCC(N)CC5)ccc4n3)cc2s1 [Compound 381, 7-(4-aminopiperidin-1-yl)-2-(2-methyl-1,3-benzothiazol-6-yl)-4H-pyrido[1,2-a]pyrimidin-4-one] | 0.1 to 0.3 µM | *** (a fold increase between >1.35 and ≤1.5 is indicated by three stars (***)) | 190 to 194 °C | * (An EC1.5× for Smn protein expression between >3 μM and ≤10 μM is indicated by one star (*)) |
| Cc1nc2ccc(-c3cc(=O)n4cc(N5CCC(N)C5)ccc4n3)cc2s1 (centres unmarked) [Compound 382, 7-(3-aminopyrrolidin-1-yl)-2-(2-methyl-1,3-benzothiazol-6-yl)-4H-pyrido[1,2-a]pyrimidin-4-one] | < 0.1 µM | **** (a fold increase between >1.5 and ≤1.65 is indicated by four stars (****)) | 196 to 200 °C | *** (an EC1.5× between >0.3 μM and ≤1 μM is indicated by three stars (***)) |
| Cc1nc2ccc(-c3cc(=O)n4cc(N5CC[C@@H](N(C)C)C5)ccc4n3)cc2s1 [Compound 383, 7-[(3R)-3-(dimethylamino)pyrrolidin-1-yl]-2-(2-methyl-1,3-benzothiazol-6-yl)-4H-pyrido[1,2-a]pyrimidin-4-one] | 0.3 to 1 µM | ** (a fold increase between >1.2 and ≤1.35 is indicated by two stars (**)) | 235 to 240 °C |  |
